Laboratory results as given in publication PMC7156724, “Potent BRD4 inhibitor suppresses cancer cell-macrophage interaction” (Nature Communications, 2020).
“And” between values parts separate entries of the source, which are not always exact repeats. Equal entries are not always repeated.

Columns and labels:
A375 human melanoma = A375 human melanoma xenograft tumor growth; type: in vivo, mouse
Excerpt: PO, oral administration; QD, once daily; BID, twice daily. b–d Tumor growth curves for A2780 ovarian tumor (n = 5) (b), TMD8 large B cell lymphoma (n = 6) (c), and B16F10 melanoma (n = 5) (d) bearing mice treated with the indicated compounds once daily for 11-21 days. e, f Tumor growth curves for A375 melanoma (n = 6) (e), and patient-derived xenograft (PDX) of melanoma (n = 5) (f) bearing mice treated with the indicated compounds once daily (5 days on, 2 days off) for 21 days. For d–f, NHWD-870 used is NHWD-870-HCl synthesized using Suzuki coupling route. Data are presented as mean ± SEM in (a, b, d, f) and mean + SEM in (c, e). p values were calculated using two-tailed, unpaired t tests. *p < 0.05; **p < 0.01; ***p < 0.001. Source data are provided as a Source Data file.
4–6 weeks old female BALB/c nude mice were used for most experiments, with the exception of 6–8 weeks old female C57BL/6 mice were used for B16F10 experiments, and 6–8 weeks old male BALB/c nude mice and SD rats were used for pharmacokinetic experiments. All animals were purchased from Shanghai SIPPR-Bk Lab Animal Co., Ltd. All animals were housed under a regimen of 12 h light/12 h dark cycles and specific pathogen-free conditions. 5×10^6 NCI-H526, ES-2, MDA-MB231, A2780, A375, B16F10, and TMD-8 cells (0.1 ml) were injected subcutaneously into female nude mice. The melanoma patient-derived xenograft model was derived from a human melanoma sample (BRAF, NARS and NF1 wild type, and p53 mutant) removed from a patient in Xiangya Hospital. Surgically removed tumor fragments were implanted subcutaneously into female NSG mice. When the tumors grew to ~1000 mm^3, they were harvested and cryopreserved or immediately re-implanted for expansion or experiments. Mouse body weight and tumor sizes were measured every 3 days. Once the tumors grew to 150–200 mm^3, mice were treated with the compounds as described in the Figures. 1 × 10^6 A2780 cells (1 ml) were injected into the abdominal cavity of nude mice. Ascitic volume and tumor weight were measured by an electronic balance. All the procedures were evaluated and approved by the Institutional Animal Care and Use Committee of Central South University and Yale University. […]
We apologize for not clearly labeling the experiments using compounds synthesized using Suzuki coupling method. In the revised manuscript, we modified the text to clearly mark the animal models in Fig 3d-f were tested using NHWD-870 synthesized using Suzuki […]
compared the activity of NHWD-870 synthesized using Stille coupling route with the NHWD-870 synthesized from Suzuki coupling route (Reviewer Figure 1). […]
activity and possible toxicity were identical.
Reviewer Figure 1 NHWD-870 synthesized through Stille or Suzuki route has similar properties in vivo. Tumor bearing mice were treated with 2mg/kg of the indicated compounds, orally administrated once daily for 21 days. Shown are tumor growth curves (a) and body weight change (b) for A375 melanoma bearing mice. […]
986158 in terms of potency, but apart from with the A375 melanocyte cell line, the advance seems relatively moderate. With such similar compounds, the pharmacokinetic properties and ability to accumulate at the desired site is often more important. Figure S6d (prev. Fig. 3d) in the previous

[1] = test system: NCI-H211 small cell lung cancer (SCLC) cells; experiment: AlamarBlue assay, NCI-H211; type: cell-based; settings: for Cellular activity in SCLCs (H211), alamarBlue: Fig.1e, replicates
Procedure: (§1) 3. AlamarBlue assay. AlamarBlue was made by resazurin sodium salt (Sigma, Cat
(§2) # 199303) dissolved in PBS.
(§3) NCI-H211, MDA-MB231 and A375 cells were plated in 96-well plates at approximately 30% confluence and left overnight to adhere. In the following day, […]
(§4) of treatment, 10 μl AlamarBlue reagent (0.3 mg/ml) was added to each well, and after 18h, the florescence intensity in each well was measured using a top-reading fluorescent plate reader with excitation at 530 nm and emission at 590 nm. […]

H526 tumors = experiment: Immunofluorescent staining of cleaved caspase 3 and Ki67 in H526 tumors; type: in vivo, mouse; settings: treated H526 tumors, independent images
Procedure: Immunofluorescence staining of tumor sections was performed according to the manufacturer’s instructions. Slides were imaged using a Zeiss Axiovert 200 fluorescence microscope (Carl Zeiss MicroImaging; Thornwood, NY), and images were captured using Openlab3 software (Imprecision, Lexington, MA). Cleaved caspase 3, Ki67, CSF1, and CD68 positive cells were counted with ImageJ version 1.52s[58].
Supplementary Figure 10. NHWD-870 increased tumor apoptosis and inhibite d tumor proliferation.
(a,b) Immunofluorescent staining of cleaved caspase 3 (apoptotic cells, red) and E-Cadherin (cancer cells, […]
green) in vehicle, NHWD-870 or BMS-986158 treated H526 tumors from Figure 4a. Shown are […]
representative images of cleaved caspase 3 positive cells (a) and quantification of cleaved caspase 3 positive […]
cells (b). Scale bar is 30 μm. Data are presented as mean ± SEM from 6 independent images. p values were […]
calculated using two-tailed, unpaired t tests. **, p<0.01; ***, p<0.001. (c,d) Immunofluorescent staining of […]
Ki67 (proliferating cells, red) and E-Cadherin (cancer cells, green) in vehicle, NHWD-870 or BMS-986158 […]
treated H526 tumors from (Figure 4a). Shown are representative images of Ki67 positive cells (c) and […]
quantification of Ki67 positive cells (d). Scale bar is 30 μm. […]
independent images. p values were calculated using two-tailed, unpaired t tests. *, p<0.05; ***, p<0.001. […]

[2] = test system: MDA-MB231 triple negative breast cancer (TNBC) cells; experiment: AlamarBlue assay, MDA-MB231; type: cell-based, human; settings: for Cellular activity in TNBCs (MDA-MB231), alamarBlue: Fig.1f, replicates
Procedure: as §1, §2, §3, §4

[3] = Body weight change of H526 SCLC tumor bearing mice; settings: for Mouse body weight changes (%) from Day 0: 3mg/kg, QDx21D, 3 mg/kg

Compound: Cc1nnn(C)c1-c1cnc2c3c4cnn(C)c4ccc3n([C@H](c3ccccc3)C3CCOCC3)c2c1 [NHWD-870]
- effect on tumor growth (A375 human melanoma; A375 human melanoma, once daily (5 days on, 2 days off) 21 days, NHWD-870-HCl): very strong tumor inhibitive effects
- activity and possible toxicity, Stille versus Suzuki coupling route (A375 human melanoma; A375 melanoma bearing mice, 2mg/kg orally once daily for 21 days): identical
- fold increased potency versus BMS-986158 ([1]; Fig 1e, f): 3 fold
- Cellular activity in SCLCs (H211), alamarBlue ([1]; concentration 0.0169701): 15.41 and 2.82
- Cellular activity in SCLCs (H211), alamarBlue ([1]; concentration 0.0398488): 10.96 and 4.35
- Cellular activity in SCLCs (H211), alamarBlue ([1]; concentration 0.137272): 28.76 and 26.98
- Cellular activity in SCLCs (H211), alamarBlue ([1]; concentration 0.614394): 86.83 and 87.53
- Cellular activity in SCLCs (H211), alamarBlue ([1]; concentration 1.09152): 89.61 and 89.15
- Cellular activity in SCLCs (H211), alamarBlue ([1]; concentration 1.56864): 89.26 and 88.73
- Cellular activity in SCLCs (H211), alamarBlue ([1]; concentration 2.04576): 89.83 and 90.11
- Cellular activity in SCLCs (H211), alamarBlue ([1]; concentration 3): 91.32 and 90.79
- Cellular activity in SCLCs (H211), alamarBlue ([1]; concentration column prints 2.52288): 91.56 and 90.89
- IC50 ([1]; Homo sapiens, NCI-H211, 72 h, 72 h treatment, nM, read-out: IC50, cellular activity in NCI-H211 (alamarBlue)): 2 nM
- fold more potent than JQ1 ([1]; NCI-H211 and MDA-MB231 cells): about 50 fold
- % of KI67 (Ki67 positive cells) (H526 tumors): 10% and 8% and 13% and 11% and 6%
- Cellular activity in TNBCs (MDA-MB231), alamarBlue ([2]; concentration 0.15): 49.81 and 46.95
- Cellular activity in TNBCs (MDA-MB231), alamarBlue ([2]; concentration 0.6): 80.07 and 80.02
- Cellular activity in TNBCs (MDA-MB231), alamarBlue ([2]; concentration 1): 86.71 and 86.28
- Cellular activity in TNBCs (MDA-MB231), alamarBlue ([2]; concentration 1.5): 87.88 and 89.64
- Cellular activity in TNBCs (MDA-MB231), alamarBlue ([2]; concentration 2): 89.68 and 91.47
- Cellular activity in TNBCs (MDA-MB231), alamarBlue ([2]; concentration 2.5): 90.92 and 92.15
- Cellular activity in TNBCs (MDA-MB231), alamarBlue ([2]; concentration 3): 92.14 and 92.46
- Cellular activity in TNBCs (MDA-MB231), alamarBlue ([2]; concentration -0.3): 13.41 and 13.25
- Cellular activity in TNBCs (MDA-MB231), alamarBlue ([2]; concentration -0.9): 6.42 and 8.37
- IC50 ([2]; Homo sapiens, MDA-MB-231, 72 h, 72 h treatment, nM, read-out: IC50, cellular activity in MDA-MB231 (alamarBlue)): 1.6 nM
- Body weight change (%) ([3]; 3mg/kg,QD, day 0 and day 20 or the last available data point, individual mice): -7.583% and -7.971% and -2.299% and 0.4517%
- Mouse body weight changes (%) from Day 0 ([3]; Day 3, individual mice): -0.08% and -2.62% and -1.34% and 1.57% and 0.13% and 1.52%
- Mouse body weight changes (%) from Day 0 ([3]; Day 7, individual mice): -7.05% and -0.52% and -4.19% and 1.94% and -3.62% and 0.82%
- Mouse body weight changes (%) from Day 0 ([3]; Day 10, individual mice): -10.82% and -3.48% and 3.84% and -1.13% and -5.35% and 3.04%
- Mouse body weight changes (%) from Day 0 ([3]; Day 14, individual mice): -1.11% and -16.35% and -6.33% and 0.59% and -10.57% and -3.67%
- Mouse body weight changes (%) from Day 0 ([3]; Day 17, individual mice): 3.90% and -4.84% and -5.58% and -1.24% and -10.06% and -0.93%
- Mouse body weight changes (%) from Day 0 ([3]; Day 20, individual mice): 0.45% and -8.20% and -7.58% and -7.97% and -11.87% and -2.30%
- body weight loss ([3]; H526 SCLC tumor bearing mice, 3mg/kg QD): about 6%
